Source: patent US12589087B2, “Enantiomer selective action on neurotransmission” (The Board of Trustees of the Leland Stanford Junior …, priority 2021, dated 2026)
Where two headings read alike, the source gives them in different places.

Key:
[1] = test system: mouse cerebral synaptosomes; test: Potassium-induced neurotransmitter release assay; assay type: cell-based; details: for synaptosome total GABA concentration following preincubation: 100 μM preincubation 15 min 37° C., vehicle 9.5±0.2; for reduction of synaptosome 4APA concentration by K+-induced membrane depolarization: 40 mM K+ vs 5 mM K+, 15 min; for endogenous GABA displaced in synaptosomes: once incorporated into synaptosomes
Protocol: To each tube, 2.5 μL of a test compound solution (final concentration 100 μM) in Buffer KRP or Buffer KRP alone were added. Samples were incubated for 15 min at 37° C., briefly chilled on ice, and then immediately centrifuged and washed twice with Buffer KRP. The resulting pellets were then resuspended in either Buffer KRP (500 μL) or Buffer K-KRP (500 μL). Samples were immediately centrifuged or incubated for 5, 10 or 15 min at 37° C., then centrifuged and washed with Buffer KRP. Resulting pellets were resuspended in 400 μL of 60% ACN containing 2.5 μM Glu-d5 and 2.5 μM Gln-d5 as internal standards.
(§1) Synaptosome uptake and high potassium-induced release assays were performed as described in Example 1. Uptake assays used 250 μL aliquots of the synaptosome suspension transferred to a pre-chilled 0.8 mL 96 well plate. 5 μL of a test compound solution (0.5 mM; final concentration: 10 μM to compare directly to our previous work was added to each well and incubated at 0° C. or 37° C. After 10, 20 or 30 min, samples were chilled on ice and immediately sedimented (2,500 g for 15 min at 4° C.) and washed with Buffer S (0.5 mL, ×2). Resulting pellets were resuspended in 200 μL of 60% ACN containing 5 μM GABA-d6 and stored at −80° C. until analysis. Potassium-induced release assay used 500 μL aliquots of the synaptosome suspension transferred to pre-chilled microcentrifuge tubes. 2.5 μL of a test compound solution (20 mM; final concentration: 100 μM) in Buffer KRP was added to each tube and incubated for 15 min at 37° C., briefly chilled on ice, and then immediately sedimented (8,000 g for 4 min at 4° C.) and washed with Buffer KRP, followed by centrifugation, twice. The resulting pellets were resuspended in 500 μL of Buffer KRP or Buffer K-KRP and incubated for 5, 10 or 15 min at 37° C., sedimented (8,000 g for 4 min at 4° C.), and washed with Buffer KRP. Resulting pellets were resuspended in 400 μL of 60% ACN containing 2.5 μM GABA-d6 as internal standard and stored at −80° C. until analysis.

[2] = test system: mouse cerebral synaptosomes; test: Synaptosomal neurotransmitter uptake assay; assay type: cell-based
Protocol: To each tube, 5 μL of a test compound solution (final concentration 10 μM) in Buffer KRP or Buffer KRP alone were added. Samples were incubated at 4° C. or 37° C. for 1, 10, or 30 min and then immediately centrifuged and washed twice by resuspension-centrifugation with Buffer S (0.5 mL). Resulting pellets were resuspended in 170 μL of 0.1% aqueous formic acid and mixed with 330 μL of ACN.
96-well plate experiments: 250 μL aliquots of the synaptosome suspension were transferred to two 0.8-mL 96 well plates, one on ice (0° C. samples only) and one in a thermoblock (37° C. samples only), and equilibrated for 10 min. 5 μL of a test compound (0.5 mM; final concentration: 10 μM) in Buffer KRP or Buffer KRP blank were added 10, 20 or 30 min before the incubation termination. “0 min” samples were prepared by placing the test compound solution in a separate pre-chilled V-shape bottom 2-mL 96 well plate; at the end of incubation 200 μL aliquots of all samples were transferred to the 2-mL 96 well plate and centrifuged (2,500 g for 15 min at 4° C.) immediately. The resulting pellets were rinsed with Buffer KRP, followed by centrifugation, twice, then resuspended in 200 μL of 60% ACN containing 2.5 μM Glu-d5 as internal standard and stored at −80° C. until analysis.
as §1

[3] = test system: mouse hippocampal slice cultures; test: Kainic acid neurodegeneration in hippocampal slice cultures (propidium iodide); assay type: cell-based
Protocol: We employed a standard technique of ex vivo experimentation to determine the efficacy of 2MeGlu, 2MeGln, and 4APA to prevent neurodegeneration. Mouse hippocampal slice cultures were prepared and then exposed to one of the three test compounds at either 5 or 50 μM for one hour. Then media was changed to contain either 2 or 5 μM kanic acid (KA) for 24 hr. […] After 24, the amount of neurodegeneration was assayed with propidium iodide staining. Increasing the dose of KA led to greater neurodegeneration at 5 μM than at 2 μM.

C57Bl/6 mice = assay type: in vivo; details: for mortality after single dose: mouse, in vivo; for distance moved in the novel cage: single 100, 300, or 900 mg/kg IP, dose- and time-dependent
Protocol: Dosing: (R)-2MeGlu (30, 100, 300, or 900 mg/kg), (S)-2MeGlu (30, 100, 300, or 900 mg/kg), rac-2MeGln (30, 100, 300, or 900 mg/kg) and vehicle (PBS) were administered at 10 ml/kg IP dosing volume. Three mice were dosed once with the assigned drug (100, 300, or 900 mg/kg) or vehicle and immediately placed in a new cage for novel cage observation. Subsequently, six mice were dosed once with the assigned drug (30 or 100 mg/kg) or vehicle and tested by SHIRPA, activity chamber, and then hot plate tests.
The mouse was dosed and immediately placed in the center of a clean, Innovive disposable rat cage with bedding (dimensions: 17″L×13.4″W×7.8″H) and allowed to move freely while being tracked automatically. Mice were monitored with Ethovision XT tracking software for the distance moved and average velocity during the 60-minute trial. They were returned to their home cage after the test. A new cage was used for each mouse.
Exploratory behavioral tests were performed exactly as previously described by us using 2-month-old C57Bl/6 male mice, Example 1. First, we assessed safety and tolerability of acute exposure to 4APA enantiomers in 22 mice by novel cage observation at 100, 300, or 900 mg/kg IP compared to vehicle (PBS) IP (n=3 or 4 mice per group without sample calculation, based on our previous study. Next, we evaluated 24 drug naïve mice with a 23-measure battery of neurologic dysfunction in mice (SHIRPA) (Rogers et al., 2001), automated activity chamber assessment, and hot plate latency acutely following 30 or 100 mg/kg IP compared to vehicle IP (n=4 or 5 mice per group). No exclusion criteria were predetermined and no randomization was performed to allocate subjects in the study.

human glutaminase GLS1 = molecular target: T1, human glutaminase GLS1 (Homo sapiens, UniProt O94925); test: Catalysis of 2MeGln hydrolysis by GLS1 glutaminase; assay type: biochemical; details: human GLS1
T1 construct: purchased Sigma SRP0516
T1 sequence (O94925 55-669): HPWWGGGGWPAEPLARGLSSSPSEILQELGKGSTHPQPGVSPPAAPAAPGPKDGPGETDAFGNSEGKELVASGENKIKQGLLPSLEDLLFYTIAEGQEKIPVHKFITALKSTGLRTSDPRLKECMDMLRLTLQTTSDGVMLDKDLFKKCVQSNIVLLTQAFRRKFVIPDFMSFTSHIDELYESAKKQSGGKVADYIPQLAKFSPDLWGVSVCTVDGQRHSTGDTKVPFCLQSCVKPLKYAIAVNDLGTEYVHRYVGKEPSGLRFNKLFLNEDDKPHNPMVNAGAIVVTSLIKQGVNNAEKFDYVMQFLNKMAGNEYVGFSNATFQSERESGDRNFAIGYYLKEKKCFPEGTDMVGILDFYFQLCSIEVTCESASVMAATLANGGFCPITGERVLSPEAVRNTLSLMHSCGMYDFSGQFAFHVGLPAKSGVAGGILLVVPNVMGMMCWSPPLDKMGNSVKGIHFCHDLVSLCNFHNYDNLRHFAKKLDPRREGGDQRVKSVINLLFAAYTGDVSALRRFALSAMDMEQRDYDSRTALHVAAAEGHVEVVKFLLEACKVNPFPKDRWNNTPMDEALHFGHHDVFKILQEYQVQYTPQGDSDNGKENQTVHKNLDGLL
Protocol: The procedure was adapted from an existing protocol. To a reaction mixture in a 1.5 mL microcentrifuge tube containing 10 mM rac-2MeGln or L-Gln-^13C2 in 100 mM phosphate pH 7.4 buffer made in 20% atom ^18O water, recombinant GLS1 (final concentration: 5 ng/mL) was added. The tubes were incubated in a preheated thermomixer at 37° C. and periodically shaken at 600 rpm (30 s on, 30 s off). 5 μL aliquots were collected in triplicate every 5 min and immediately diluted with 195 μL of cold 60% ACN containing 10 μM Glu-d5 and Gln-d5 as internal standards in a 96 well plate. After collecting all samples, the plate was shaken at 1000 rpm for 5 min at room temperature, and then stored at −80° C. Before analysis the plate was thawed and 10 μL aliquots of the extracted reaction mixtures were diluted with 190 μL of 90% acetonitrile.
The quantification of the newly formed 2MeGlu in the presence of the preexisting trace amounts was performed in the following way. Peak area ratio of Glu-^13C2 to Glu-^13C2^18O was calculated in all samples containing Glu-^13C2. The mean ratio value was then applied to calculate the hypothetical peak area of the newly formed 2MeGlu based on the directly measured 2MeGlu-^18O peak area. The ratio of the newly formed 2MeGlu peak area and the total 2MeGlu peak area was applied to calculate the concentration of the newly formed 2MeGlu from the total 2MeGlu concentration determined directly using the calibration curve.

Line 61 mice = test: Transgenic α-synuclein mouse model, tapered beam test; assay type: in vivo
Description: Line 61 mice overexpress human α-synuclein under control of the mouse Thy-1 promoter. The transgene is X-linked so females have variable transgene expression; for this reason, we focused on male mice. […] Categorical data from the tapered beam task were unblinded and analyzed by X square test (P<0.005).

[4] = Metabolism in synaptosomes (GABA shunt, glutamate-glutamine cycle); assay type: in vitro ADME; details: mouse, mouse cerebral synaptosomes; synaptosomes preincubated with 100 μM, normal KRP buffer, 37° C.; read-out: synaptosomal concentration, estimated half life
Protocol: To each tube, a 5 μL aliquot of a test compound solution (final concentration 100 μM) in Buffer KRP or Buffer KRP alone were added. The samples were incubated for 15 min at 37° C., briefly chilled on ice, and then immediately centrifuged and washed twice by resuspension-centrifugation with Buffer S (0.5 mL). The pellets were then resuspended in Buffer KRP (500 μL). Samples were then immediately centrifuged or incubated for 5, 10, 15, 20, 25 or 30 min at 37° C. and then centrifuged and washed by resuspension-centrifugation with Buffer S (0.5 mL). Resulting pellets were resuspended in 170 μL of 0.1% aqueous formic acid, mixed with 330 μL of ACN.
To each tube, 5 μL of 2MeGlu solution (final concentration 100 μM) in Buffer KRP or Buffer KRP alone were added. The samples were incubated for 15 min at 37° C., briefly chilled on ice, and then immediately centrifuged and washed twice by resuspension-centrifugation with Buffer S (0.5 mL). The pellets were then resuspended in Buffer KRP (200 μL). Samples were then kept on ice or incubated for 10, 20, 30, 40 or 50 min at 37° C. and then chilled on ice. Then all samples were centrifuged, 200 μL of supernatants were collected, and the pellets were suspended in 200 μL of 80% ACN. Supernatants and pellet suspensions were diluted with 250 μL of ACN and 50 μL of 10 μM d5-Glu in water as internal standard.

Compound	synaptosome total GABA concentration following preincubation [1] [nmol/mg protein]	reduction of synaptosome 4APA concentration by K+-induced membrane depolarization [1]	endogenous GABA displaced in synaptosomes [1]	synaptosome concentration, % of (R)-4APA ([2]; 10 μM, 30 min at 37° C.) [%]	mortality after single dose (C57Bl/6 mice)	distance moved in the novel cage (C57Bl/6 mice)	further results
CC(N)CCC(=O)O (racemic) [rac-4APA, (rac)-4-Aminopentanoic acid]	4.4±0.4	62.2±8.6%	about 55%	78.5±3.8			synaptosome Glu concentration ([1]; preincubation with compound): not significantly changed; potassium-induced release from synaptosomes ([1]; preloaded with 100 μM for 15 min at 37° C., high-potassium depolarization): high potassium concentration-dependent release; transport into synaptosomes ([2]; 10 μM substrate, 37° C.): transported into synaptosomes; neuroprotection ([3]; 5 or 50 μM compound): not neuroprotective
C[C@H](N)CCC(=O)O [(S)-4APA, (S)-4-aminopentanoic acid]	6.0±0.6	did not significantly reduce	approximately 30%	22.8±0.8	no mouse died	significantly decreased	
C[C@](N)(CCC(N)=O)C(=O)O [(S)-2MeGln, (S)-2-methylglutamine]							substrate of GLS1 (hydrolysis to 2MeGlu) (human glutaminase GLS1): substrates
C[C@@H](N)CCC(=O)O [(R)-4APA, (R)-4-aminopentanoic acid]	3.8±0.5	55.3±6.8%	about 55%		no mouse died	significantly decreased	synaptosome concentration of 4APA ([2]; 10 μM, 30 min at 37° C.): 9.3±0.6 nmol/mg protein; synaptosome uptake, faster than (S)-4APA ([2]; mouse synaptosomes): 4- to 5 fold; body weight or deaths (Line 61 mice; 5 or 50 mg/kg/d IP, seven days): no change in body weight or deaths; motor function, tapered beam (Line 61 mice; 7 days IP, high dose (50 mg/kg/d) S-2MeGlu, either dose (5 or 50 mg/kg/d) R-4APA): improved motor function similar to WT mice; α-synuclein accumulation in brain by immunohistochemistry vs vehicle (Line 61 mice; Line 61 mice): no significant change; time post injection until not significantly different from vehicle, novel cage (C57Bl/6 mice; 300 mg/kg IP): 13 min; time post injection until not significantly different from vehicle, novel cage (C57Bl/6 mice; 900 mg/kg IP): 42 min
CC(N)(CCC(=O)O)C(=O)O (racemic) [rac-2MeGlu, rac-2-Methylglutamic acid]							half-life at 100 μM [4]: 21 min; reduction of neurodegeneration ([3]; 50 μM compound, lower dose of KA (2 μM)): approximately 50%; neuroprotection at the higher dose of KA ([3]; 5 or 50 μM compound, 5 μM KA): Neither dose of 2MeGlu or 2MeGln was neuroprotective
